Assay results published in BindingDB's records for doi:10.1016/j.chembiol.2005.02.007 (Stanford University, 2005).

Target: T1, Protein-glutamine gamma-glutamyltransferase 2 (Homo sapiens, UniProt P21980)
T1 sequence (P21980 whole entry): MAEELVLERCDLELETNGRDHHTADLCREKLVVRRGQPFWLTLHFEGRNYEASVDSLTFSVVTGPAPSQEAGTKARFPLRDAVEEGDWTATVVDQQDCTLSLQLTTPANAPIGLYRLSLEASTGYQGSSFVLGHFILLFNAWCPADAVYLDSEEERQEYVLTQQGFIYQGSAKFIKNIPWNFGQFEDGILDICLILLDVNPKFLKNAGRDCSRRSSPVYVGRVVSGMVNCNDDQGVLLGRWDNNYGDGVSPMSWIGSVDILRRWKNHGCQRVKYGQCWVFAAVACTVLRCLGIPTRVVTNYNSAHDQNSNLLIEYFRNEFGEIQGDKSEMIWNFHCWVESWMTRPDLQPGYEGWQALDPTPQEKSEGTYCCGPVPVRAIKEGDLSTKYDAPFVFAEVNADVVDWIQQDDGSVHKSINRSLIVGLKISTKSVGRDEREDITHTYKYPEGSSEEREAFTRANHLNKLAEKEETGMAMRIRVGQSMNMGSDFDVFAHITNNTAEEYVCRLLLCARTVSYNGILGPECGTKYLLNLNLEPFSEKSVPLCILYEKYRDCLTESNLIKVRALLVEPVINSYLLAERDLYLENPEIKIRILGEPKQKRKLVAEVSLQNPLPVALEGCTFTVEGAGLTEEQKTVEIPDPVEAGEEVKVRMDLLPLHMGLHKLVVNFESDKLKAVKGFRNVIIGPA
Assay: TG Inhibition Assay
Conditions: pH 7.2
Source text: Recombinant of human TG2 was expressed in E.coli and purified to >90% homogeneity.

Row | Ki | SMILES
1 | 43 µM | O=C(N[C@@H](Cc1ccccc1)C(=O)NCC1CC(Br)=NO1)Oc1ccc2ccccc2c1 (some centres undefined) [Dihydroisoxazole, 3e]
2 | 87 µM | O=C(N[C@@H](Cc1ccccc1)C(=O)NCC1CC(Br)=NO1)OCC1=Cc2ccccc2S1(=O)=O (some centres undefined) [Dihydroisoxazole, 3f]
3 | 310 µM | O=C(N[C@@H](Cc1c[nH]c2ccc(O)cc12)C(=O)NCC1CC(Br)=NO1)OCc1ccccc1 (some centres undefined) [Dihydroisoxazole, 1f]
4 | 61 µM | O=C(N[C@@H](Cc1ccccc1)C(=O)NCC1CC(Br)=NO1)OCCc1ccccc1 (some centres undefined) [Dihydroisoxazole, 3d]
